Experimental findings from US10287269B2, “Pyrazolyl pyrimidinone compounds as PDE2 inhibitors” (Merck Sharp & Dohme Corp., priority 2015, dated 2019) are described below.

For the first assay, the target named is T1, Rhesus PDE2A3 (Macaca mulatta, UniProt B3VTJ2).
T1 construct: made in house; host or cells: AD293 cells, transient transfection, pcDNA3.3-TOPO; lysate supernatant used as enzyme
T1 sequence (B3VTJ2 1-941): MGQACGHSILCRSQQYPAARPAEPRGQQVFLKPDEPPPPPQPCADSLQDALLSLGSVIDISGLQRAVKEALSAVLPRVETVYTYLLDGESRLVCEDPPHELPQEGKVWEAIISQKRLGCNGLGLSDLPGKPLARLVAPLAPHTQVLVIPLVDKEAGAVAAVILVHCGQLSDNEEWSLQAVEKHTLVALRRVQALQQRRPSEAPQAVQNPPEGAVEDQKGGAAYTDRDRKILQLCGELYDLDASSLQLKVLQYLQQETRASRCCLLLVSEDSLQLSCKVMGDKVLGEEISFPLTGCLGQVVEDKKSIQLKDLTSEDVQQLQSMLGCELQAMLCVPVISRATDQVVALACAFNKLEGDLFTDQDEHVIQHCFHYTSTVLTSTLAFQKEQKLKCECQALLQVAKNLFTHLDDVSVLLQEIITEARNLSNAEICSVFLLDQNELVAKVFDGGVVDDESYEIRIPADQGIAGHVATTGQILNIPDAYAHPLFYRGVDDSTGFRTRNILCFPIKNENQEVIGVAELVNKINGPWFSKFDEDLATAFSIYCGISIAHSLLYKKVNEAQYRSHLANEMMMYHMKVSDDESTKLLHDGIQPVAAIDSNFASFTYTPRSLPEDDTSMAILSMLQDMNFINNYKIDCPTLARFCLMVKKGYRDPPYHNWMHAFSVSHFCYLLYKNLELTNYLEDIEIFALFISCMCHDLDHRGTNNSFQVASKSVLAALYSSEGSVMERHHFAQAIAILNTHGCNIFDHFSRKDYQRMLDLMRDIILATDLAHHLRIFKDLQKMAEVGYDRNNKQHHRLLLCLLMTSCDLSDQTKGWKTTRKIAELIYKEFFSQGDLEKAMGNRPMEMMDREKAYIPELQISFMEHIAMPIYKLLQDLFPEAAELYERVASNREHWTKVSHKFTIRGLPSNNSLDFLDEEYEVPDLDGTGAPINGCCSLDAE
The assay is described as follows: PDE2 fluorescence polarization (IMAP FP) inhibition assay, rhesus enzyme. The format is biochemical, rhesus macaque. To be noted: Lab A; read-out: Rhesus PDE2 Ki (nM) Lab A. How it is done:
The activity of the compounds in accordance with the present invention as PDE2 inhibitors may be readily determined using a fluorescence polarization (FP) methodology (Huang, W., et al., J. Biomol Screen, 2002, 7: 215).
In a typical experiment the PDE2 inhibitory activity of the compounds of the present invention was determined in accordance with the following experimental method. Rhesus PDE2A3 was amplified from rhesus macaque brain cDNA (Biochain Institute, Hayward, Calif.) using primers based on human PDE2A sequence (accession NM_002599.3) where the forward primer containing a Kozak consensus was 5′-[…]-3′ and the reverse primer was 5′-[…]-3′. Amplification with Easy-A High-Fidelity PCR cloning enzyme (Stratagene, La Jolla, Calif.) was 95° C. for 2 minutes followed by thirty three cycles of 95° C. for 40 seconds, 52° C. for 30 seconds, and 72° C. for 2 minutes 48 seconds. Final extension was 72° C. for 7 minutes. The PCR product was TA cloned into pcDNA3.3-TOPO (Invitrogen, Carlsbad, Calif.) according to standard protocol. A consensus sequence was developed from multiple clones and then deposited into GenBank (EU812167). AD293 cells (Stratagene, La Jolla, Calif.) with 70-80% confluency were transiently transfected with rhesus PDE2A3/pcDNA3.3-TOPO using Lipofectamine 2000 according to manufacturer specifications (Invitrogen, Carlsbad, Calif.). Cells were harvested 48 hours post-transfection and lysed by sonication (setting 3, 10×5 sec pulses) in a buffer containing 20 mM HEPES pH 7.4, 1 mM EDTA and Complete Protease Inhibitor Cocktail Tablets (Roche, Indianapolis, Ind.). Lysate was collected by centrifugation at 75,000×g for 20 minutes at 4° C. and supernatant utilized for evaluation of PDE2 activity. The fluorescence polarization assay for cyclic nucleotide phosphodiesterases was performed using an IMAP® FP kit supplied by Molecular Devices, Sunnyvale, Calif. (product # R8139). […] Assays were performed at room temperature in 384-well microtiter plates with an incubation volume of 20.2 μL. Solutions of test compounds were prepared in DMSO and serially diluted with DMSO to yield 8 μL of each of 10 solutions differing by 3-fold in concentration, at 32 serial dilutions per plate. […] 0% of inhibition is determined by using DMSO (1% final concentrations).
A Labcyte Echo 555 (Labcyte, Sunnyvale, Calif.) is used to dispense 200 nL from each well of the titration plate to the 384 well assay plate. Ten microliters of a solution of enzyme (1/2000 final dilution from aliquots; sufficient to produce 20% substrate conversion) was added to the assay plate. Next 10 uL of a separate solution of the substrate FAM-labeled cAMP (50 nM final concentration product # R7506 from Molecular Devices) and the activator cGMP (1 uM final concentration), prepared in the assay buffer (10 mM Tris HCl, pH 7.2, 10 mM MgCl2, 0.05% NaN3 0.01% Tween-20, and 1 mM DTT) was added to the assay plate and shaken to mix. The reaction is allowed to proceed at room temperature for 60 minutes. A binding solution is then made from the kit components, comprised of 80% Solution A, 20% Solution B and binding reagent at a volume of 1/600 the total binding solution. The enzymatic reaction is stopped by addition of 60 μl, of the binding solution to each well of the assay plates and the plates are sealed and shaken for 30 seconds. The plate was incubated at room temperature for at least one hour prior to determining the fluorescence polarization (FP). The parallel and perpendicular fluorescence of each well of the plate was measured using a Tecan Genios Pro plate reader (Tecan, Switzerland) or Perkin Elmer EnVision™ plate reader (Waltham, Mass.). Fluorescence polarization (mP) was calculated from the parallel (S) and perpendicular (P) fluorescence of each sample well and the analogous values for the median control well, containing only substrate (So and Po), using the following equation: Polarization (mP)=1000*(S/So−P/Po)/(S/So+P/Po).
(Polarisation of emitted light reports the rotation of a fluorescent probe.)
The Ki is a dissociation constant, usually derived from enzyme kinetics or from competition with a known ligand. For `CCc1nc(-c2cnn(C(C)c3ccc(C(F)(F)F)cc3F)c2)cc(=O)[nH]1` (single isomer, unassigned) [Example 86, (S)- or (R)-2-ethyl-6-(1-(1-(2-fluoro-4-(trifluoromethyl)phenyl)ethyl)-1H-pyrazol-4-yl)pyrimidin-4(3H)-one], the Ki came to 146 nM.

With `Cc1nc(-c2cnn(C(C)c3ccc(OC(F)F)cc3C)c2)cc(=O)[nH]1` (single isomer, unassigned) [Example 90, (S)- or (R)-6-(1-(1-(4-(difluoromethoxy)-2-methylphenyl)ethyl)-1H-pyrazol-4-yl)-2-methylpyrimidin-4(3H)-one], the Ki was determined as 150 nM.

As for `Cc1nc(-c2cnn(C(C)c3ccc(C4CC4)cc3C)c2)cc(=O)[nH]1` (single isomer, unassigned) [Example 93, (R)- or (S)-6-(1-(1-(4-cyclopropyl-2-methylphenyl)ethyl)-1H-pyrazol-4-yl)-2-methylpyrimidin-4(3H)-one], the Ki was found to be 706 nM.

With `Cc1ccc(C(C)n2cc(-c3cc(=O)[nH]c(C)n3)cn2)c(Cl)c1` (single isomer, unassigned) [Example 149, (S)- or (R)-6-(1-(1-(2-chloro-4-methylphenyl)ethyl)-1H-pyrazol-4-yl)-2-methylpyrimidin-4(3H)-one], the Ki is 954 nM.

Take `Cc1nc(-c2cnn(C(C)c3ccc(CC(F)(F)F)cc3F)c2)cc(=O)[nH]1` (single isomer, unassigned) [Example 96, (S)- or (R)-6-(1-(1-(2-fluoro-4-(2,2,2-trifluoroethyl)phenyl)ethyl)-1H-pyrazol-4-yl)-2-methylpyrimidin-4(3H)-one]: the Ki stood at 1260 nM.

`COCc1ccc(C(C)n2cc(-c3cc(=O)[nH]c(C)n3)cn2)c(F)c1` (single isomer, unassigned) [Example 98, (S)- or (R)-6-(1-(1-(2-fluoro-4-(methoxymethyl)phenyl)ethyl)-1H-pyrazol-4-yl)-2-methylpyrimidin-4(3H)-one]: the Ki is more than 2970 nM.

Staying with this assay, now noted: Lab B; read-out: Rhesus PDE2 Ki (nM) Lab B.
Take `Cc1nc(-n2cc(C(C)c3ccc(OC(F)(F)F)cc3C)cn2)cc(=O)[nH]1` (stereo not drawn) [Example 55, 2-methyl-6-(4-(1-(2-methyl-4-(trifluoromethoxy)phenyl)ethyl)-1H-pyrazol-1-yl)pyrimidin-4(3H)-one]: the Ki stood at 467 nM.

With `Cc1nc(-c2c(C)nn(C(C)c3ccc(C(F)(F)F)cc3)c2C)cc(=O)[nH]1` (stereo not drawn) [Example 79, 6-(3,5-dimethyl-1-(1-(4-(trifluoromethyl)phenyl)ethyl)-1H-pyrazol-4-yl)-2-methylpyrimidin-4(3H)-one], the Ki stood at 727 nM.

As for `Cc1nc(-c2cnn(C(C)c3ccccc3)c2)cc(=O)[nH]1` (stereo not drawn) [Example 156, 2-methyl-6-(1-(1-phenylethyl)-1H-pyrazol-4-yl)pyrimidin-4(3H)-one], the Ki is 4890 nM.

On to `Cc1nc(-c2ccn(C(C)c3ccc(F)cc3)n2)cc(=O)[nH]1` (stereo not drawn) [Example 161, 6-(1-(1-(4-fluorophenyl)ethyl)-1H-pyrazol-3-yl)-2-methylpyrimidin-4(3H)-one], for which the Ki was 13900 nM.

On to `CCCC(c1ccc(C(F)(F)F)cc1)n1ccc(-c2cc(=O)[nH]c(C)n2)n1` (stereo not drawn) [Example 160, 2-methyl-6-(1-(1-(4-(trifluoromethyl)phenyl)butyl)-1H-pyrazol-3-yl)pyrimidin-4(3H)-one], for which the Ki is 2300 nM.

In the case of `Cc1nc(-c2cnn(C(C)c3ccc(OC(F)(F)F)cc3F)c2)cc(=O)[nH]1` (single isomer, unassigned) [Example 59, (S)- or (R)-6-(1-(1-(2-fluoro-4-(trifluoromethoxy)phenyl)ethyl)-1H-pyrazol-4-yl)-2-methylpyrimidin-4(3H)-one], the Ki amounted to 469 nM.

On to `CCCc1ccc(C(C)c2cnn(-c3cc(=O)[nH]c(C)n3)c2)cc1` (stereo not drawn) [Example 43, 2-methyl-6-(4-(1-(4-propylphenyl)ethyl)-1H-pyrazol-1-yl)pyrimidin-4(3H)-one], for which the Ki is 313 nM.

With `Cc1nc(-c2cc(C(C)c3ccc(C(F)(F)F)cc3)nn2C)cc(=O)[nH]1` (single isomer, unassigned) [Example 131, (R)- or (S)-2-methyl-6-(1-methyl-3-(1-(4-(trifluoromethyl)phenyl)ethyl)-1H-pyrazol-5-yl)pyrimidin-4(3H)-one], the Ki is more than 1000 nM.

Turning to `Cc1nc(-n2cc(C(C)c3ccc4c(c3)CCOC4)cn2)cc(=O)[nH]1` (stereo not drawn) [Example 42, 6-(4-(1-(isochroman-6-yl)ethyl)-1H-pyrazol-1-yl)-2-methylpyrimidin-4(3H)-one], the Ki was 2620 nM.

Take `COC(=O)c1ccc(C(C)n2cc(-c3cc(=O)[nH]c(C)n3)cn2)cc1` (stereo not drawn) [Example 155, methyl 4-(1-(4-(2-methyl-6-oxo-1,6-dihydropyrimidin-4-yl)-1H-pyrazol-1-yl)ethyl)benzoate]: the Ki was 3830 nM.

For the molecule `Cc1nc(-c2ccn(C(C)c3ccc(OC(F)(F)F)cc3)n2)cc(=O)[nH]1` (stereo not drawn) [Example 75, 2-methyl-6-(1-(1-(4-(trifluoromethoxy)phenyl)ethyl)-1H-pyrazol-3-yl)pyrimidin-4(3H)-one], the Ki worked out at 3250 nM.

As for `Cc1nc(-c2cc([C@@H](C)c3ccc(C(F)(F)F)cc3)n(C)n2)cc(=O)[nH]1` (single isomer, unassigned) [Example 25], the inhibitory constant (Ki) turned out to be 3680 nM.

As for `Cc1nc(-c2cnn(C(C)c3ccc(C(F)(F)F)cc3C)c2)cc(=O)[nH]1` (single isomer, unassigned) [Example 56, (R)- or (S)-2-methyl-6-(1-(1-(2-methyl-4-(trifluoromethyl)phenyl)ethyl)-1H-pyrazol-4-yl)pyrimidin-4(3H)-one], the Ki was 314 nM.

Consider `Cc1nc(-n2cc(C(C)c3ccncc3)cn2)cc(=O)[nH]1` (stereo not drawn) [Example 54, 2-methyl-6-[4-(1-pyridin-4-ylethyl)-1H-pyrazol-1-yl]pyrimidin-4(3H)-one], for which the inhibition constant (Ki) worked out at 18200 nM.

Turning to `Cc1nc(-n2cc(C(C)c3ccc4c(c3)COCC4)cn2)cc(=O)[nH]1` (stereo not drawn) [Example 46, 6-(4-(1-(isochroman-7-yl)ethyl)-1H-pyrazol-1-yl)-2-methylpyrimidin-4(3H)-one], the Ki amounted to 2480 nM.
